These are literature values, as cited in patent publication US20020156056A1, “Oral fast-dissolving compositions for dopamine agonists” (priority 1997, published 2002).

For data set [1] the following is noted: in vivo.

For the compound `CN1CCc2cccc3c2C1Cc1ccc(O)c(O)c1-3` (centres unmarked) [apomorphine, 5,6,6a,7-tetrahydro-6-methyl-4H-dibenzo[de,g]quinoline-10,11-diol], the “Adverse effects of intranasal administration” value (intranasal) is “transient nasal blockage, burning sensation and swollen nose and lips”. Moreover, the “Adverse findings in long-term studies of oral tablets” value (oral tablets, studies stopped after 7-10 days) is listed as “unexplained rises in blood urea nitrogen”. For the same compound, the “Adverse effects of sub-lingual tablets” value (sub-lingual tablets, prolonged use) is listed as “severe stomatitis on prolonged use with buccal mucosal ulceration in half the patients treated”.
`N[C@@H](Cc1ccc(O)c(O)c1)C(=O)O` [levodopa]: in data set [1], the “Share of the drug converted to dopamine in peripheral tissues” value is reported as “about 95%” and the “Share of the drug that enters the brain” value is on record as “less than 1%”.
